Where two headings read alike, the source gives them in different places.

In experiment [1] the test system is HEK-hOCT2 cells. Kind of experiment: MTT drug sensitivity assay in HEK-hOCT2 cells. Format: cell-based, human. On the procedure: (§1) Cytotoxicity of the platinum-based compounds was measured by MTT (thiazolyl blue tetrazolium bromide) assay. Cells were seeded in 100 μl of the culture medium without any antibiotics in 96-well plates at a predetermined cell density. For HEK 293 cells, poly-D-lysine coated plates were used. […] For the OCT inhibitor studies, the inhibitors (i.e., disopyramide or cimetidine) were added to the medium at a specified concentration immediately before the addition of the platinum-based compounds. After incubation for a specified time period, the drug-containing medium was replaced with fresh, drug-free medium and the incubation was continued for a total of 72 hours (start from the addition of platinum-based compounds). Then, the MTT assay was performed similarly as described in Alley et al., Cancer Res., 48:589-601 (1988). […] The maximal cell growth was the cell growth in the medium without any platinum-based compounds; C is the concentration of the platinum-based compound, and γ is the slope factor.
(§2) Briefly, the cells were seeded in 96-well plates at a density of 5,000 cells/well for the transfected MDCK cells or 12,000 cells/well for the transfected HEK 293 cells. The platinum-based drugs were added on the following day. After the specified time periods of drug exposure, the drug-containing medium was replaced with fresh, drug-free medium, and the incubation was continued for a total of 72 hours (start from the time when the drug was added). After incubation, the cell growth was determined by an MTT assay. Data are expressed as mean±SD from 3 to 6 independent experiments with each performed in quadruplicate. The resistance factor (RF) was defined as the ratio of the mean IC50 value in the MOCK cells to that in the OCT-transfected cells.
For orientation: Tetrazolium assays rely on reduction of a dye to a coloured formazan, in cell work by metabolically active cells.

Experiment [2] has as its system HEK-MOCK cells. Kind of experiment: MTT drug sensitivity assay in HEK-MOCK cells (control of HEK-hOCT3). Format: cell-based, human. The settings on record: Table 3. The method, then:
Cytotoxicity of the platinum-based compounds was measured by MTT (thiazolyl blue tetrazolium bromide) assay. Cells were seeded in 100 μl of the culture medium without any antibiotics in 96-well plates at a predetermined cell density. For HEK 293 cells, poly-D-lysine coated plates were used. After overnight incubation, the platinum-based compounds were then added to the culture medium to give the indicated final concentrations. For the OCT inhibitor studies, the inhibitors (i.e., disopyramide or cimetidine) were added to the medium at a specified concentration immediately before the addition of the platinum-based compounds. After incubation for a specified time period, the drug-containing medium was replaced with fresh, drug-free medium and the incubation was continued for a total of 72 hours (start from the addition of platinum-based compounds). Then, the MTT assay was performed similarly as described in Alley et al., Cancer Res., 48:589-601 (1988). […] The maximal cell growth was the cell growth in the medium without any platinum-based compounds; C is the concentration of the platinum-based compound, and γ is the slope factor.
as §2

Experiment [3] concerns DLD. Briefly: MTT drug sensitivity, colon cancer cell line DLD. The experiment is classed as cell-based, human. On the procedure:
as §1
The cell seeding density was 6,000-, 8,000-, 6,000-, 15,000-12,000- and 4,000 cells/well for HCT116, HT29, RKO, SW620, LS180, and DLD cells, respectively. When cimetidine (1.5 mM) was used, it was added to the wells immediately before the addition of the platinum-based drugs. The resistance factor (RF) was defined as the ratio of the mean IC50 value in the presence to that in the absence of cimetidine. Data are expressed as mean±SD from six measurements, and each measurement was performed in quadruplicate.

Experiment [4] relates to MDCK-MOCK cells. Kind of experiment: Platinum-DNA adduct formation in MDCK-MOCK cells. Format: cell-based, canine. On the procedure: After incubation at 37° C. and 5% CO2 for 2 hours, the cells were washed with ice-cold PBS three times and harvested. The genomic DNA was isolated from the cells and the platinum content associated with DNA was determined by ICP-MS and normalized for DNA content. Data are expressed as mean±SD from a typical experiment performed in triplicate. Two independent experiments were conducted and similar results were obtained.
After incubation, the cells were washed with ice-cold PBS three times and harvested. Genomic DNA was isolated from the harvested cells and the DNA-associated platinum content was determined by ICP-MS and normalized for the DNA content. Data are expressed as mean±SD of three measurements.
The platinum content associated with genomic DNA was determined as described in Samimi et al., Clin. Cancer Res., 10:4661-4669 (2004) with some modifications. Briefly, the cells were grown in 100 mm×20 mm dishes in the culture medium without any antibiotics to over 90% confluence. For HEK 293 cells, poly-D-lysine coated dishes were used. Then, the cells were incubated in the culture medium containing the specified concentrations of the platinum-based compounds at 37° C. in 5% CO2 for 2 hours (or 25 min as specified). In some experiments, phosphate buffer (PB: 1.06 mM KH2PO4, 2.97 mM Na2HPO4, pH 7.4) containing 155 mM NaCl (PB—Cl buffer) or 103 mM Na2SO4 (PB—SO4 buffer) was used instead of the culture medium as specified. For the OCT inhibitor study, the incubation medium (buffer) also contained disopyramide or cimetidine). If PB—Cl or PB—SO4 buffer was used, the cells were washed with the same buffer once before drug incubation. After incubation, the cells were washed with ice-cold PBS, scraped, and pelleted. Genomic DNA was isolated from the cell pellets using the Wizard® Genomic DNA Purification Kit (Promega, Madison, Wis.) following the manufacturer's instructions. Briefly, the cells were lysed with Nuclei Lysis Solution. After RNA digestion and protein precipitation, the lysates were centrifuged and the resulting supernatant was aliquoted. The genomic DNA prepared from two different aliquots of the supernatant was used for platinum and DNA content determination, respectively. For the determination of platinum, the DNA samples were treated with 70% nitric acid at 65° C. and diluted in the same way as described above. The platinum content was analyzed using ICP-MS and the DNA content was measured by absorption spectroscopy.

As a reminder, the IC50 is the midpoint of a concentration-inhibition curve. In the case of `O=C1[O][Pt]2([NH][C@@H]3CCCC[C@H]3[NH]2)[O]C1=O` [oxaliplatin], the IC50 was 2810 ± 1630 nM in experiment [1] (co-incubation with cimetidine 1.5 mM, read-out: IC50 in HEK-hOCT2, cimetidine-treated); 39 ± 25 nM in experiment [1] (drug exposure 7 hour, read-out: IC50 HEK-hOCT2); 20 ± 1 nM in experiment [1] (drug exposure 24 hour, read-out: IC50 HEK-hOCT2); 19 ± 4 nM in experiment [1] (drug exposure 72 hour, read-out: IC50 HEK-hOCT2); 1470 ± 280 nM in experiment [2] (drug exposure 7 hour); 470 ± 50 nM in experiment [2] (drug exposure 24 hour). Further, the IC50 came out at 470 ± 120 nM in experiment [2] (drug exposure 72 hour); 10600 ± 5990 nM in experiment [3] (absence of cimetidine, read-out: IC50 Control); 71300 ± 12900 nM in experiment [3] (cimetidine 1.5 mM, read-out: IC50 Cimetidine-treated). The “DNA-associated platinum level in MDCK-MOCK” value in experiment [4] (20 μM, PB—Cl, 25 min) came to 0.0034±0.00087 pmol/μg DNA. Also, the “rb in MDCK-MOCK” value in experiment [4] (20 μM, PB—Cl, 25 min) is 1.12±0.29×10^−6; in experiment [4] (20 μM, PB—SO4, 25 min), 1.05±0.14×10^−6. In experiment [4] (20 μM, PB—SO4, 25 min), the “Pt-DNA adduct level in MDCK-MOCK” value is reported as 0.0032±0.00042 pmol/μg DNA. Moreover, in experiment [4] (2-hr exposure, oxaliplatin 10 μM, culture medium), the “platinum-DNA adduct level in MDCK-MOCK” value was 0.0110±0.0010 pmol/μg DNA. In addition, in experiment [4] (disopyramide 150 μM), the “effect of disopyramide on platinum-DNA adduct formation in MDCK-MOCK” value was “no effect”.

Values taken from patent publication US20100028259A1, “USE OF ORGANIC CATION TRANSPORTERS FOR CANCER DIAGNOSIS AND THERAPY” (The Regents of the University of California, priority 2006, published 2010).
